Like-named read-outs stand apart in the source and are kept apart here.
What was measured:
[1] = Determination of toxicity (DLo), single intraperitoneal dose; type: in vivo; settings: voie intrapéritonéale, dose unique, souris Swiss, suivies pendant un mois
Source text: Ils sont tous administrés, par voie intrapéritonéale (ip), à des souris Swiss de 22 ± 2 g, à doses uniques exprimées en mg/kg de poids corporel. Les animaux sont suivis pendant un mois. La mortalité et les signes de toxicité sont relevés. On détermine ainsi la DLoqui sera la dose maximale utilisée pour la détermination de l'activité antitumorale.

[2] = Solubility in water (statement); type: physicochemical
Leucémie L1210 = type: in vivo, souris DBA/2; settings: for survivants 30 jours / Δ P J1-J5 / T/C / Doses actives (T/C ≥ 125 %): L1210, greffe ip(10^5cel.); for T/C: survivants inclus
Source text: Afin de tester l'activité antitumorale des composés décrits plus haut, on a utilisé les leucémies murines P388 et L1210, ainsi que le mélanome murin B16. La leucémie P388 est considère comme très sensible et permet une première sélection. D'autre part, une substance ayant une grande activité sur la leucémie L1210 a une grande chance d'être active en clinique humaine (J.M. Venditti; Relevance of transplantable animal tumor systems to the Selection of new agents for clinical trial in pharmacological basis of cancer chemotherapy. The University of Texas ed. Williams and Wilkins, publ. 1975, Baltimore USA).
La leucémie L1210 de la souris est en effet couramment utilisée pour l'évaluation de tous les composés antitumoraux actuellement mis en oeuvre en thérapeutique humaine, ainsi qu'il est décrit, par exemple par C.C. Zubrod dans Proc. Nat. Acad. Sci. USA 69, 1972, p. 1042-1047. Le système tumoral ainsi constitué expérimentalement permet une évaluation quantitative très précise de l'activité du composé testé, et, par conséquent aussi, une comparaison objective entre les activités respectives de différents composés, par exemple selon les méthodes décrites par R. E. Skipper, F. M. Schabel, Jr. et W. S. Wilcox dans Cancer Chemother. Rep., 35, 1964, p. 1-111 et 45, 1965, p.5-28.
Cette étude a été réalisée sur 1, 2 ou 3 tumeurs murines expérimentales selon le schéma suivant :
Les produits en solution dans l'eau ou en suspension dans du Klucel sont administrés par voie intrapéritonéale 24 heures après la greffe des cellules tumorales (10 animaux par série), soit en injection unique (J1), soit pendant 9 jours consécutifs (Ji-9). Les morts sont relevés chaque jour à la même heure. La comparaison du temps médian de survie des souris témoins (C) et des souris traitées (T) permet d'apprécier l'activité antitumorale du produit. On adopte comme critère d'activité minimale la valeur de T/C supérieure ou égale à 125 % conformément aux critères établis par GERAN et par l'O.M.S. (Réf. GERAN R.I., GREENBERG N.H., MACDONALD M.M., SCHUMACHER A.M. and ABBOTT B.J. Protocols for screening chemical agents and natural products against animal tumors and other biological systems. Cancer Chemother. Rep. Part 3, 3, 1-103 (1972)).
Lorsque le composé est actif sur plusieurs tumeurs, son administration par d'autres voies que la voie intrapéritonéale (i.p.) est envisagée : orale (p.o) et intraveineuse (i.v). Les résultats des essais effectués à l'aide du composé 63 sont rassemblés dans le tableau IV ci-après.
Dans les tableaux IV et IV Bis, P représentent la variation de poids entre J1 et J5 des animaux traités; lorsque P est supérieure à environ 4 g, cela signifie que la dose à laquelle le composé a été testé est toxique.

[3] = ip J1-9, dose optimale 0,4 mg/kg/inj.
[4] = ip J1, dose optimale 2 mg/kg/inj.

Q: What does the source list for `CN(C)CCCNc1ncnc2c1C(=O)C(N1CC1)=C(N1CC1)C2=O` [composé 63]?
A: DLo [1]: ~3 mg/kg; solubilité dans l'eau [2]: hydrosoluble; survivants 30 jours (Leucémie L1210; [3]): 1; Δ P J1-J5 (Leucémie L1210; [3]): -1,6 g; T/C (Leucémie L1210; [3]): 174%; survivants 30 jours (Leucémie L1210; [4]): 1; Δ P J1-J5 (Leucémie L1210; [4]): -2,8 g; T/C (Leucémie L1210; [4]): 160%; Doses actives (T/C ≥ 125 %) (Leucémie L1210; traitement ip J1): 0,25-2 mg/kg/inj.; Doses actives (T/C ≥ 125 %) (Leucémie L1210; traitement ip J1-9): 0,03-0,8 mg/kg/inj.; activité sur la leucémie L1210 (Leucémie L1210; summary): très efficace

Source: patent publication EP0292365A2, “4-Amino-5,8-quinazolindione derivatives, process for their preparation and pharmaceutical compositions containing them” (CENTRE NATIONAL DE LA RECHERCHE SCIENTIFIQUE, priority 1987, dated 1988)
